Results published in ChEMBL document CHEMBL1127717, “Synthesis of new oligosaccharidyl-thio--cyclodextrins (CDS): a novel family of potent drug-targetting vectors” (1994).
≈ marks a conversion by molar mass, not a printed value. Each block holds one molecule with its values, some of them ahead of it.

Key:
[1] = (§1) In vitro flocculation inhibitory ability was determined towards Yeast cell wall lectin (KbWCL); assay type: functional, Saccharomyces cerevisiae
Saccharomyces cerevisiae = test: as §1; assay type: functional
[2] = Saccharomyces cerevisiae, read-out: MIC

SMILES: OC[C@H]1OC(O)[C@H](O)[C@@H](O)[C@@H]1O (stereo not given in full)
MIC (Saccharomyces cerevisiae): No inhibition

SMILES: OC[C@H]1O[C@@H]2O[C@H]3[C@H](O)[C@@H](O)[C@@H](O[C@H]4[C@H](O)[C@@H](O)[C@@H](O[C@H]5[C@H](O)[C@@H](O)[C@@H](O[C@H]6[C@H](O)[C@@H](O)[C@@H](O[C@H]7[C@H](O)[C@@H](O)[C@@H](O[C@H]8[C@H](O)[C@@H](O)[C@@H](O[C@H]1[C@H](O)[C@H]2O)O[C@@H]8CO)O[C@@H]7CO)O[C@@H]6CO)O[C@@H]5CO)O[C@@H]4CO)O[C@@H]3CO
MIC (Saccharomyces cerevisiae): No inhibition

SMILES: OCC1OC(SCCSCC2OC3OC4C(CSCCSC5OC(CO)C(O)C(O)C5O)OC(OC5C(CSCCSC6OC(CO)C(O)C(O)C6O)OC(OC6C(CSCCSC7OC(CO)C(O)C(O)C7O)OC(OC7C(CSCCSC8OC(CO)C(O)C(O)C8O)OC(OC8C(CSCCSC9OC(CO)C(O)C(O)C9O)OC(OC9C(CSCCSC%10OC(CO)C(O)C(O)C%10O)OC(OC2C(O)C3O)C(O)C9O)C(O)C8O)C(O)C7O)C(O)C6O)C(O)C5O)C(O)C4O)C(O)C(O)C1O (stereo not given)
MIC [1, 2]: 410 µM (≈ 1150 µg/mL)

SMILES: O=C(NC[C@@H]1O[C@@H]2O[C@H]3[C@H](O)[C@H](O)[C@@H](O[C@H]4[C@H](O)[C@H](O)[C@@H](O[C@H]5[C@H](O)[C@H](O)[C@@H](O[C@H]6[C@H](O)[C@H](O)[C@@H](O[C@H]7[C@H](O)[C@H](O)[C@@H](O[C@H]8[C@H](O)[C@H](O)[C@@H](O[C@H]1[C@H](O)[C@@H]2O)O[C@H]8CO)O[C@H]7CO)O[C@H]6CO)O[C@H]5CO)O[C@H]4CO)O[C@H]3CO)C(CS[C@@H]1O[C@@H](CO)[C@H](O)[C@H](O)[C@@H]1O)CS[C@@H]1O[C@@H](CO)[C@H](O)[C@H](O)[C@@H]1O
MIC [1, 2]: 2000 µM (≈ 3190 µg/mL)

SMILES: OC[C@H]1O[C@H](OC[C@H]2O[C@H](O[C@]3(CO)O[C@H](CO)[C@@H](O)[C@@H]3O)[C@H](O)[C@@H](O)[C@@H]2O)[C@H](O)[C@@H](O)[C@H]1O [RAFFINOSE]
MIC [1, 2]: 1200 µM (≈ 605 µg/mL)

SMILES: O=[N+]([O-])c1ccc(O[C@H]2O[C@H](CO)[C@@H](O)[C@H](O)[C@H]2O)cc1 (stereo in doubt; form 1)
MIC [1]: 400 µM (≈ 121 µg/mL)

SMILES: OC1OC[C@@H](O)[C@@H](O)[C@@H]1O (stereo not given in full)
MIC (Saccharomyces cerevisiae): No inhibition

More lines, now with the values ahead:

MIC [1, 2]: 3500 µM (≈ 575 µg/mL)
SMILES: C[C@H]1OC(O)[C@H](O)[C@@H](O)[C@H]1O (stereo not given in full)

MIC [1]: 1660 µM
SMILES: [Na+].[O-]CC1OC(SCC2OC3OC4C(CSC5OC(CO)C(O)C(O)C5O)OC(OC5C(CSC6OC(CO)C(O)C(O)C6O)OC(OC6C(CSC7OC(CO)C(O)C(O)C7O)OC(OC7C(CSC8OC(CO)C(O)C(O)C8O)OC(OC8C(CSC9OC(CO)C(O)C(O)C9O)OC(OC9C(CSC%10OC(CO)C(O)C(O)C%10O)OC(OC2C(O)C3O)C(O)C9O)C(O)C8O)C(O)C7O)C(O)C6O)C(O)C5O)C(O)C4O)C(O)C(O)C1O (stereo in doubt; 5)

MIC [1, 2]: 1700 µM (≈ 2490 µg/mL)
SMILES: O=C(CCCCCCCC(=O)N[C@@H]1O[C@@H](CO)[C@H](O)[C@H](O)[C@@H]1O)NC[C@@H]1O[C@@H]2O[C@H]3[C@H](O)[C@H](O)[C@@H](O[C@H]4[C@H](O)[C@H](O)[C@@H](O[C@H]5[C@H](O)[C@H](O)[C@@H](O[C@H]6[C@H](O)[C@H](O)[C@@H](O[C@H]7[C@H](O)[C@H](O)[C@@H](O[C@H]8[C@H](O)[C@H](O)[C@@H](O[C@H]1[C@H](O)[C@@H]2O)O[C@H]8CO)O[C@H]7CO)O[C@H]6CO)O[C@H]5CO)O[C@H]4CO)O[C@H]3CO

MIC (Saccharomyces cerevisiae): No inhibition
SMILES: OC[C@H]1O[C@@H]2O[C@H]3[C@H](O)[C@@H](O)[C@@H](O[C@H]4[C@H](O)[C@@H](O)[C@@H](O[C@H]5[C@H](O)[C@@H](O)[C@@H](O[C@H]6[C@H](O)[C@@H](O)[C@@H](O[C@H]7[C@H](O)[C@@H](O)[C@@H](O[C@H]1[C@H](O)[C@H]2O)O[C@@H]7CO)O[C@@H]6CO)O[C@@H]5CO)O[C@@H]4CO)O[C@@H]3CO

MIC [1, 2]: 3750 µM (≈ 4920 µg/mL)
SMILES: OC[C@@H]1O[C@@H](SC[C@@H]2O[C@@H]3O[C@H]4[C@H](O)[C@H](O)[C@@H](O[C@H]5[C@H](O)[C@H](O)[C@@H](O[C@H]6[C@H](O)[C@H](O)[C@@H](O[C@H]7[C@H](O)[C@H](O)[C@@H](O[C@H]8[C@H](O)[C@H](O)[C@@H](O[C@H]9[C@H](O)[C@H](O)[C@@H](O[C@H]2[C@H](O)[C@@H]3O)O[C@H]9CO)O[C@H]8CO)O[C@H]7CO)O[C@H]6CO)O[C@H]5CO)O[C@H]4CO)[C@@H](O)[C@@H](O)[C@@H]1O

MIC [1]: 700 µM
SMILES: [Na+].[O-]CC1OC(SCC2OC3OC4C(CSC5OC(CO)C(O)C(O)C5O)OC(OC5C(CSC6OC(CO)C(O)C(O)C6O)OC(OC6C(CSC7OC(CO)C(O)C(O)C7O)OC(OC7C(CSC8OC(CO)C(O)C(O)C8O)OC(OC8C(CSC9OC(CO)C(O)C(O)C9O)OC(OC9C(CSC%10OC(CO)C(O)C(O)C%10O)OC(OC2C(O)C3O)C(O)C9O)C(O)C8O)C(O)C7O)C(O)C6O)C(O)C5O)C(O)C4O)C(O)C(O)C1O (stereo in doubt; 6)

MIC [1, 2]: 600 µM (≈ 205 µg/mL)
SMILES: OC[C@H]1O[C@H](OCC2O[C@@H](O)[C@H](O)[C@@H](O)[C@@H]2O)[C@H](O)[C@@H](O)[C@H]1O (stereo not given in full) [MELIBIOSE]

MIC [1]: 830 µM (≈ 250 µg/mL)
SMILES: O=[N+]([O-])c1ccc(O[C@H]2O[C@H](CO)[C@@H](O)[C@H](O)[C@H]2O)cc1 (stereo in doubt; form 2)
